Data on one compound can be found in patent US20100331297A1, “MODULATION OF PROTEIN TRAFFICKING” (FOLDRX PHARMACEUTICALS, INC., priority 2007, published 2010).

The target of experiment [1] is T1, ΔF508 CFTR (Homo sapiens, UniProt P13569, DEL508-508). Put plainly: Stabilization of ΔF508 CFTR in CFBE cells (western blot, densitometry). The class given is cell-based. The conditions noted are these: 16 hours at 37° C. An excerpt:
In addition, efficacy of a compound can be evaluated before (first in time), concomitantly or subsequently to the above-mentioned test modalities by monitoring, e.g., (i) modulation (e.g., an improvement) of the stability of a trafficking defective protein, (ii) modulation (e.g., an improvement) of proper, physiological trafficking of the trafficking defective protein, or (iii) modulation (e.g., a restoration) in one or more functions of a trafficking defective protein. For example, in some cases, proteins (e.g., protein mutants such as ΔF508 CFTR) are prematurely degraded. Thus, the efficacy of a given compound to modulate protein trafficking can be determined by monitoring the stability of a protein in the presence as compared to the absence of the compound. For example, cells expressing a trafficking defective protein (e.g., expressing endogenously or expressing an exogenous transgene encoding a trafficking defective protein such as ΔF508 CFTR) can be cultured in the presence or absence of a compound for at least 1 hour (e.g., at least 2 hours, at least 4 hours, at least 6 hours, at least 8 hours, at least 12 hours, at least 16 hours, at least 24 hours, at least 36 hours, or at least 48 hours). Cell lysates can be prepared from the different populations of cells, suspended in Laemmli buffer (with or without reducing agent) and subjected to sodium dodecyl sulfate-polyacrylamide gel electrophoresis (SDS-PAGE). Using antibodies that specifically recognize the trafficking defective protein (e.g., CFTR), the amount of the protein in the presence as compared to in the absence of a compound can be determined by western or dot-blotting techniques. […] Where a modified state (e.g., glycosylation or phosphorylation) of a protein is indicative of increased stability, a change in the modified state of a protein can also be used to determine if a compound stabilizes the trafficking defective protein. For example, the amount of glycosylated CFTR (e.g., ΔF508 CFTR) can be assessed in the presence as compared to the absence of a compound.
The compounds can be tested for their ability to stabilize ΔF508 CTFR. CFBE cells, a cell line generated by transformation of cystic fibrosis tracheo-bronchial cells (ΔF508 CTFR homozygous) with SV40 (Bruscia et al. (2002) Gene Ther. 9(11):683-685), can be cultured with 10 μM of the selected compounds, or 10 μM VRT-325 for 16 hours at 37° C. (VRT-325 is described in, e.g., Van Goor et al. (2006) Am. J. Physiol. Lung Cell Mol. Physiol. 290:L1117-L1130). A population of cells can also be cultured with the dimethyl sulfoxide (DMSO) solvent as a control.
Following incubation, cells were lysed, solubilized in Laemmli buffer, and subjected to SDS-PAGE. CFTR protein were visualized by western blotting using an antibody specific for CFTR. Culturing CFBE cells with compound 25 (see Table I for structure) increased the amount of cellular ΔF508 CFTR protein.
The effect of different concentrations of compound 25 on ΔF508 CFTR was tested in a dose response experiment. […] The relative amounts of glysosylated and unglycosylated ΔF508 CFTR protein were visualized by western blotting (FIG. 10A), and the band intensities wer quantitated by scanning and densitometry (FIG. 10B). […] The relative amounts of glysosylated and unglycosylated ΔF508 CFTR protein were visualized by western blotting (FIG. 11A), and the band intensities wer quantitated by scanning and densitometry (FIG. 11B).
Background: A western blot detects proteins with antibodies after separation by electrophoresis.

The target of experiment [2] is T1, ΔF508 CFTR. As to the kind of experiment: Corrector activity, YFP halide (iodide) quenching assay in FRT cells expressing ΔF508 CFTR. The class given is cell-based. On the set-up: expressed in transfected cells; host or cells: Fischer rat thyroid (FRT) cells. To be noted: Corrector EC50, FRT cells ΔF508 CFTR/YFP, 24 hours with compound at 37° C., forskolin and genistein. The method, boiled down: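 FRT cells co-expressing ΔF508 CFTR and halide-sensitive YFP were incubated 24 h at 37° C with compounds, then stimulated 30 min at 37° C in PBS with forskolin and genistein. Endpoint fluorescence after iodide injection was normalized to initial reading; EC50 from 4-parameter fit with bottom constrained to DMSO control.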

T1 sequence (P13569 with tags, fused parts or gaps DEL508-508): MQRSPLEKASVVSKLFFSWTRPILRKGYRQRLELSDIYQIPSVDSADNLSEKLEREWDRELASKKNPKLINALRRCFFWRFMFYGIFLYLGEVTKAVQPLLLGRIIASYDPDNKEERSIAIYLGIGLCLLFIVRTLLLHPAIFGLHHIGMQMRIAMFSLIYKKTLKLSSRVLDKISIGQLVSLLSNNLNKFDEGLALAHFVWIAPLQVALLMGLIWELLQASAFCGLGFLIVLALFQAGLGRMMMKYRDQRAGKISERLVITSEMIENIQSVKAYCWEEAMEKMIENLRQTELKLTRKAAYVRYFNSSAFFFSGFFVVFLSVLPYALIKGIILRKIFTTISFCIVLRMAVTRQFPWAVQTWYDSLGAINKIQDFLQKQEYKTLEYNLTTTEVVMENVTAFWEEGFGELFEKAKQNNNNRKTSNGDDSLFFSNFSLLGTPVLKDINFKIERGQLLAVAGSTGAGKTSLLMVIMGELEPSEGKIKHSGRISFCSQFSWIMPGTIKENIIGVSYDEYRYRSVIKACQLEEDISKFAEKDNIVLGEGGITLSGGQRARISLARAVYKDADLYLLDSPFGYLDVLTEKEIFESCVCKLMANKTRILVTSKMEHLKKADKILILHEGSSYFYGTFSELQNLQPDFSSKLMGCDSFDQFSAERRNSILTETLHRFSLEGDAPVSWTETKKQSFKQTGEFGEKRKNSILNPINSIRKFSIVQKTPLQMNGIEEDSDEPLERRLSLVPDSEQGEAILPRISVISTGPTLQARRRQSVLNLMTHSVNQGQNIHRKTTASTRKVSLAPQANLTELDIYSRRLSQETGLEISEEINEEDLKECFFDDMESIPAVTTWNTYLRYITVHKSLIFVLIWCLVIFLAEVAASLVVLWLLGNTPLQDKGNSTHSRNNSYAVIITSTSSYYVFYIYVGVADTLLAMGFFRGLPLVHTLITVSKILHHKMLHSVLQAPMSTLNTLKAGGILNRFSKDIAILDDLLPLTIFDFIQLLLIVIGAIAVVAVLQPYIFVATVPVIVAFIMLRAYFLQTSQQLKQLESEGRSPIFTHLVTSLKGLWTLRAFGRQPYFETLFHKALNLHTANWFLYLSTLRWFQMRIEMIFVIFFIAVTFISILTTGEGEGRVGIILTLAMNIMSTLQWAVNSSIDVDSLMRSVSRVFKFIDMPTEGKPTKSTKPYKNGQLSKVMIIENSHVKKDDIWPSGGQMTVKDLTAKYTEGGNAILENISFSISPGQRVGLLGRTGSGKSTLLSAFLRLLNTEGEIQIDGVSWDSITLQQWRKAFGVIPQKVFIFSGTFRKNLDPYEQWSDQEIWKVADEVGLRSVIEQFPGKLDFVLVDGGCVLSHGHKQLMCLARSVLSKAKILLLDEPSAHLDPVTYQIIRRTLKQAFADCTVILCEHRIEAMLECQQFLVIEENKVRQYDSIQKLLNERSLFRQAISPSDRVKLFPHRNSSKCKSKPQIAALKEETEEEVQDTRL

For orientation: EC50 means the concentration that produces a half-maximal response. As for `CC(C)(C)n1nc(-c2ccc(Cl)cc2)c2c(N)ncnc21` [compound 25], at ΔF508 CFTR [1] (10 μM), the “amount of cellular ΔF508 CFTR protein (western blot)” value was “increased”, the “amount of the glycosylated form of ΔF508 CFTR (western blot)” value is recorded as “increased” and the “effect on stabilizing ΔF508 CFTR relative to VRT-325” value was “comparable or better”. Also, at ΔF508 CFTR [1] (1.25-10 μM (compound 25), 1-10 μM (compound 5)), the “glycosylated (Band B) ΔF508 CFTR protein vs absence of compound, dose response” value is given as “increased”. On ΔF508 CFTR [2], the EC50 is 2 to 5 µM.
